We go through 8 compounds from ChEMBL document CHEMBL1201862, “PubChem BioAssay data set” (2004).

Structures are written as SMILES.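 Assay format: 96-well plates, 48-hour exposure. GI50 is the concentration that inhibits growth by half.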 Active and inactive are the calls of the source. No stated cut-off is given here; in the data, active = GI50 up to about 1.1 µM and inactive = higher.

Among the test systems are CAKI-1; HCT-15; K562; NCI/ADR-RES; M14; BT-549; IGROV-1; Hs-578T; RXF 393; SK-OV-3; NCI-H226; SF-268; UACC-257; COLO 205; DU-145; 786-0; MDA-MB-231; MDA-MB-435; RPMI-8226.
Common to all, as to test: DTP human tumour cell line panel, 48 h

The term GI50 denotes the concentration that inhibits growth by half. As for `c1ccc(-c2cc(-c3cc(-c4ccccc4)[nH]n3)[nH]n2)cc1`, the GI50 with CAKI-1 is > 100 µM (inactive); with HCT-15, more than 100 µM; with K562 it was > 100 µM (inactive); in the assay on NCI/ADR-RES, > 100 µM (inactive); in the assay with M14 it was > 100 µM (inactive); in the assay on BT-549 it was > 100 µM (inactive). The GI50 in the assay with IGROV-1, in the assay on Hs-578T, in the assay with RXF 393, with SK-OV-3, in the assay with NCI-H226 and in the assay with SF-268 was > 100 µM (inactive) each time. For the same compound, the GI50 in the assay on UACC-257, in the assay on COLO 205, with DU-145, in the assay with 786-0, with MDA-MB-231 and in the assay on MDA-MB-435 was > 100 µM (inactive) throughout.

Consider `O=C(CCc1ccc(O)c(O)c1)NCCc1cc(O)c(O)c(O)c1`, for which the GI50 is 16.4 µM in the assay with HCT-15; 18.3 µM (inactive) in the assay with K562; 18.1 µM (inactive) in the assay with NCI/ADR-RES; 22.4 µM (inactive) in the assay with M14; 17 µM (inactive) in the assay on BT-549; 54.1 µM (inactive) in the assay with IGROV-1. Also, the GI50 is 78.3 µM (inactive) in the assay on Hs-578T; 66.7 µM (inactive) in the assay with RXF 393; > 100 µM (inactive) with SK-OV-3; 34.3 µM (inactive) in the assay on NCI-H226; 41.1 µM (inactive) in the assay with SF-268; 50.1 µM (inactive) with UACC-257. For the same compound, the GI50 was 37.8 µM (inactive) in the assay on COLO 205; 64.7 µM (inactive) in the assay with DU-145; 18.6 µM (inactive) in the assay with 786-0; 14.5 µM (inactive) in the assay on MDA-MB-231; 36.7 µM (inactive) with RPMI-8226; 17.6 µM (inactive) in the assay on MDA-MB-435.

As for `Cc1cccc(C[C@@]2(SCc3ccccc3)C(C)(C)[C@@H]3CC[C@@]2(C)C3)n1`, the GI50 in the assay with CAKI-1 is 16.7 µM (inactive); with HCT-15, 13.8 µM; in the assay with K562, 13.1 µM (inactive); in the assay on NCI/ADR-RES, 13.8 µM (inactive); in the assay with M14, 14.7 µM (inactive); in the assay with BT-549, 20 µM (inactive). Moreover, the GI50 with IGROV-1 was 15.1 µM (inactive); in the assay on Hs-578T, 19.7 µM (inactive); with RXF 393, 16.3 µM (inactive); in the assay with SK-OV-3, 20.4 µM (inactive); in the assay on SF-268, 16.1 µM (inactive); with UACC-257 it was 14.1 µM (inactive). The GI50 was 15.6 µM (inactive) with COLO 205; 16.9 µM (inactive) with DU-145; 17.6 µM (inactive) with 786-0; 14 µM (inactive) in the assay with MDA-MB-231; 11.8 µM (inactive) in the assay on RPMI-8226; 24 µM (inactive) with MDA-MB-435.

With `COc1ccc(-c2nnc3n(Cc4ccccc4)c4ccccc4n3c2=O)cc1`, the GI50 is 13.9 µM (inactive) in the assay with CAKI-1; more than 100 µM in the assay with HCT-15; 55.8 µM (inactive) in the assay with NCI/ADR-RES; 77.6 µM (inactive) with M14; > 100 µM (inactive) in the assay on BT-549; 13.3 µM (inactive) in the assay on IGROV-1. The GI50 with Hs-578T was 22.1 µM (inactive); in the assay on RXF 393 it was 26.8 µM (inactive); in the assay on NCI-H226 it was 17.4 µM (inactive); in the assay with SF-268 it was 22.7 µM (inactive); in the assay with UACC-257, 37.4 µM (inactive); in the assay with COLO 205, > 100 µM (inactive). The GI50 in the assay with DU-145 was 59.4 µM (inactive); in the assay with 786-0, 10.9 µM (inactive); in the assay with MDA-MB-231 it was 26.1 µM (inactive); with MDA-MB-435, 4.76 µM (inactive).

For `O=C(NNC(=S)Nc1ccc(Cl)cc1)C12CC3CC(CC(C3)C1)C2`, the GI50 in the assay with CAKI-1 is 7.19 µM (inactive); with HCT-15, 3.18 µM; with K562 it was 4.24 µM (inactive); in the assay on NCI/ADR-RES, 3.56 µM (inactive); with M14 it was 7.74 µM (inactive); in the assay with BT-549, 11.6 µM (inactive). Further, the GI50 with IGROV-1 is 3.34 µM (inactive); with Hs-578T, 17.1 µM (inactive); with RXF 393, 14.7 µM (inactive); in the assay on SK-OV-3 it was 9.79 µM (inactive); in the assay with NCI-H226 it was 10.7 µM (inactive); in the assay on SF-268, 6.05 µM (inactive). Besides, the GI50 is 6.15 µM (inactive) with UACC-257; 3.32 µM (inactive) in the assay on COLO 205; 11.6 µM (inactive) with DU-145; 5.15 µM (inactive) in the assay on 786-0; 3.88 µM (inactive) with MDA-MB-231; 7.53 µM (inactive) in the assay with MDA-MB-435.

On to `C[N+](C)(C)c1nc(N)nc2c1ncn2C1OC(CO)C(O)C1O` (stereo unspecified), for which the GI50 in the assay with CAKI-1 is > 100 µM (inactive); with HCT-15, more than 100 µM; with K562 it was > 100 µM (inactive); in the assay on NCI/ADR-RES, > 100 µM (inactive); with M14 it was > 100 µM (inactive); in the assay with BT-549, > 100 µM (inactive). Also, the GI50 in the assay on IGROV-1, in the assay with Hs-578T, in the assay with RXF 393, with SK-OV-3, with SF-268 and in the assay with UACC-257 was > 100 µM (inactive) in each case. Also, the GI50 with COLO 205, in the assay with DU-145, in the assay with 786-0, in the assay on MDA-MB-231, in the assay on RPMI-8226 and with MDA-MB-435 was > 100 µM (inactive) in each case.

With `CC(C)(O)CO/N=C1\C(=C2\C(=O)Nc3ccccc32)Nc2ccccc21`, the concentration for 50% growth inhibition (GI50) is 0.112 µM (active) in the assay on CAKI-1; 0.324 µM in the assay with HCT-15; 5.86 µM (inactive) with K562; 1.33 µM (inactive) in the assay on NCI/ADR-RES; 0.474 µM (active) in the assay on M14; 1.82 µM (inactive) in the assay with BT-549. In addition, the concentration for 50% growth inhibition (GI50) in the assay on IGROV-1 is 0.0895 µM (active); with Hs-578T, 0.867 µM (active); in the assay with RXF 393, 0.279 µM (active); in the assay on SK-OV-3, 0.158 µM (active); in the assay on SF-268 it was 2.33 µM (inactive); in the assay with UACC-257, 4.49 µM (inactive). The GI50 was 0.615 µM (active) in the assay with COLO 205; 0.476 µM (active) with DU-145; 10.7 µM (inactive) with 786-0; 2.01 µM (inactive) in the assay on MDA-MB-231; 1.97 µM (inactive) in the assay on RPMI-8226; 0.794 µM (active) in the assay on MDA-MB-435.

In the case of `COc1cccc(-c2cc(O)c3c(C)ccnc3n2)c1`, the concentration for 50% growth inhibition (GI50) is 0.0486 µM in the assay with HCT-15; < 0.0113 µM (active) in the assay with K562; 0.0224 µM (active) in the assay with NCI/ADR-RES; 0.0239 µM (active) in the assay with M14; 21.2 µM (inactive) with BT-549; 0.0493 µM (active) in the assay on IGROV-1. For the same compound, the concentration for 50% growth inhibition (GI50) in the assay with Hs-578T is 0.0222 µM (active); in the assay on RXF 393 it was 0.0284 µM (active); in the assay on SK-OV-3, 0.0365 µM (active); in the assay with NCI-H226 it was 0.0272 µM (active); in the assay on SF-268, 0.0439 µM (active); with COLO 205, 0.0199 µM (active). In addition, the GI50 is 0.0471 µM (active) in the assay on DU-145; 0.0449 µM (active) with 786-0; 0.279 µM (active) in the assay on MDA-MB-231; 0.0327 µM (active) in the assay with RPMI-8226; < 0.01 µM (active) in the assay with MDA-MB-435.
